Experimental findings from US20240407385A1, “HIGH PURITY PHYLLODULCIN EXTRACT” (SYMRISE AG, priority 2021, published 2024) are described below.

The nature of the assay: Sensory evaluation of sweetness compared with pure (R)-phyllodulcin (Example 4). Type of assay: in vivo. The settings on record: dose 5 mg/kg; panel n=20. As for the experimental part:
Two samples (samples 1 and 2) were prepared by a method according to the invention. Particularly, the leaf material was extracted two times with ethyl acetate (in an amount of 5 times of the weight of the leaf material) and wherein the precipitation was performed with ethanol at 10° C. Furthermore, the solid was washed with ethanol (in an amount of 3 times of the weight of the solid) at 5° C.
Sample 3 was extracted from leaf material, however, no precipitation was performed.
The samples were then compared with the pure substance (R)-phyllodulcin with regard to their sensory evaluation.

The molecule `COc1ccc([C@H]2Cc3cccc(O)c3C(=O)O2)cc1O` [(R)-phyllodulcin, (3R)-8-Hydroxy-3-(3-hydroxy-4-methoxyphenyl)-3,4-dihydro-1 H-isochromen-1-one] yielded a Sweetness of 27.0%.
